The values below come from patent publication EP1660440B1, “ACYLOXYALKYL CARBAMATE PRODRUGS, METHODS OF SYNTHESIS AND USE” (priority 2003, dated 2005).

The conditions of series [1]: human, 2 µM.
Procedure: (§1) The stabilities of prodrugs were evaluated in one or more in vitro systems using a variety of tissue preparations following methods known in the art. The chemical stability of prodrugs in aqueous buffers at pH's of 2.0, 7.4 and 8.0 were also measured. […] Each preparation was incubated with test compound at 37°C for one hour. Aliquots (50 µL) were removed at 0, 30, and 60 min and quenched with 0.1 % trifluoroacetic acid in acetonitrile.
For series [2] the following is noted: rat, plasma, 2 µM.
Procedure: as §1
The conditions of series [3]: human, plasma, 2 µM.
Procedure: as §1
Another series relates to Pancreatin. Nature of the series: Pancreatin stability. The series is classed as in vitro ADME, porcine. To be noted: 5 µM. How it is done:
Pancreatin Stability: Stability studies were conducted by incubating prodrug (5 µM) with 1 % (w/v) pancreatin (Sigma, P-1625, from porcine pancreas) in 0.025 M Tris buffer containing 0.5 M NaCl (pH 7.5) at 37 °C for 60 min. The reaction was stopped by addition of 2 volumes of methanol. After centrifugation at 14,000 rpm for 10 min, the supernatant was removed and analyzed by LC/MS/MS.

For series [4] the following is noted: human, s9, 1 h, 5 µM.
Procedure: For stability studies, prodrug (5 µM) was incubated in Caco-2 homogenate S9 fraction (0.5 mg protein per mL) for 60 min at 37°C. Concentrations of intact prodrug and released baclofen were determined at zero time and 60 minutes using LC/MS/MS.
The next series concerns Caco-2 cells. Particulars: human, Caco-2, 200 uM.
For series [5] the following is noted: aqueous buffer.
Procedure: as §1
For series [6] the following is noted: rat, 2 µM.
Procedure: as §1
[7] abbreviates: 1 % (w/v) pancreatin, pH 7.5, 37 °C, after 60 min.

Like-named read-outs stand apart in the source and are kept apart here.

Procedure for Caco-2 cells: For example, cellular permeability may be evaluated by examining the flux of a prodrug across a cultured polarized cell monolayer (e.g., Caco-2 cells). Caco-2 cells obtained from continuous culture (passage less than 28) were seeded at high density onto Transwell polycarbonate filters. Cells were maintained with DMEM / 10% fetal calf serum + 0.1 mM nonessential amino acids + 2 mM L-Gln, 5% CO2/ / 95% O2, 37°C until the day of the experiment. Permeability studies were conducted at pH 6.5 apically (in 50 mM MES buffer containing 1 mM CaCl2, 1mM MgCl2, 150 mM NaCl, 3 mM KCl, 1 mM NaH2PO4, 5 mM glucose) and pH 7.4 basolaterally (in Hanks' balanced salt solution containing 10 mM HEPES) in the presence of efflux pump inhibitors (250 µM MK-571, 250 µM Verapamil, 1 mM Ofloxacin). Inserts were placed in 12 or 24 well plates containing buffer and incubated for 30 min at 37C°. Prodrug (200 µM) was added to the apical or basolateral compartment (donor) and concentrations of prodrug and/or released parent drug in the opposite compartment (receiver) were determined at intervals over 1 hour using LC/MS/MS. Values of apparent permeability (Papp) were calculated using the equation: Papp = Vr (dC/dt)//(ACo) [formula]
Here Vr is the volume of the receiver compartment in mL; dC/dt is the total flux ofprodrug and parent drug (µM/s), determined from the slope of the plot of concentration in the receiver compartment versus time; Co is the initial concentration of prodrug in µM; A is the surface area of the membrane in cm^2.

As for `CC(=O)OCOC(=O)NC[C@H](CC(=O)[O-])c1ccc(Cl)cc1.[Na+]` [(10), Sodium 4-[(Acetoxymethoxy)carbonylamino]-(3R)-(4-chlorophenyl)-butanoate], the “% of Baclofen Released” value in series [1] (s9, 1 h) was determined as 80%; in series [2] (1 h), 15%; in series [3] (1 h), 26%; in the series with Pancreatin (setting [7]) it was 21%; in series [4], 96%; in series [5] (1 h, pH 2), 1%. Also, the “% of Baclofen Released” value is 3% in series [5] (1 h, pH 7.4); 9% in series [5] (1 h, pH 8); 78% in series [6] (s9, 1 h). Besides, the “% of Prodrug Remaining” value in series [1] (s9, 1 h) is recorded as 1%; in series [2] (1 h), 85%; in series [3] (1 h) it was 64%; with Pancreatin (setting [7]), 75%; in series [4], 2%; in series [5] (1 h, pH 2) it was 100%. Further, the “% of Prodrug Remaining” value in series [5] (1 h, pH 7.4) is listed as 101%; in series [5] (1 h, pH 8), 98%; in series [6] (s9, 1 h), 0%. The “Ratio A-BB-A” value with Caco-2 cells was 1.2.

As to `CCCC(=O)OC(C)OC(=O)NC[C@H](CC(=O)[O-])c1ccc(Cl)cc1.[Na+]` (stereo partly drawn) [(32), Sodium 4-[(1-Butanoyloxyethoxy)carbonylamino]-(3R)-(4-chlorophenyl)-butanoate], the “Ratio A-BB-A” value with Caco-2 cells is on record as 7.6.

Regarding `CC(OC(=O)NC[C@H](CC(=O)[O-])c1ccc(Cl)cc1)OC(=O)C(C)(C)C.[Na+]` (stereo partly drawn) [(36), Sodium 4-[(1-Pivaloyrloxyethoxy)carbonylamino]-(3R)-(4-chlorophenyl)-butanoate], the “Ratio A-BB-A” value with Caco-2 cells is 1.5.

Turning to `CCC(=O)OC(OC(=O)NC[C@H](CC(=O)[O-])c1ccc(Cl)cc1)C(C)C.[Na+]` (stereo partly drawn) [(48), Sodium 4-[(1-Propanoyloxyisobutoxy)carbonylamino]-(3R)-(4-chlorophenyl)-butanoate], the “Ratio A-BB-A” value with Caco-2 cells stood at 6.5.

On to `COc1ccc(C(=O)OCOC(=O)NC[C@H](CC(=O)[O-])c2ccc(Cl)cc2)cc1.[Na+]` [(53), Sodium 4-[(4-Methoxybenzoyloxymethoxy)carbonylamino]-(3R)-(4-chlorophenyl)-butan oate], for which, in the series with Caco-2 cells, the “Ratio A-BB-A” value was 2.4.

`CCCC(OC(=O)NC[C@H](CC(=O)[O-])c1ccc(Cl)cc1)OC(=O)c1ccccc1.[Na+]` (stereo partly drawn) [(71), Sodium 4-[(1-Benzoyloxybutoxy)carbonylamino]-(3R)-(4-chlorophenyl)-butanoate]: in the series on Caco-2 cells, the “Ratio A-BB-A” value turned out to be 7.1.

Turning to `CCCC(OC(=O)NC[C@H](CC(=O)[O-])c1ccc(Cl)cc1)OC(=O)C(C)C.[Na+]` (stereo partly drawn) [(72), Sodium 4-[(1-Isobutanoyloxybutoxy)carbonylamino]-(3R)-(4-chlorophenyl)-butanoate], the “Ratio A-BB-A” value in the series with Caco-2 cells was 3.5.

`CCCC(=O)OC(CCC)OC(=O)NC[C@H](CC(=O)[O-])c1ccc(Cl)cc1.[Na+]` (stereo partly drawn) [(73), Sodium 4-[(1-Butanoyloxybutoxy)carbonylamino]-(3R)-(4-chlorophenyl)-butanoate]: in the series with Caco-2 cells, the “Ratio A-BB-A” value is recorded as 3.2.

Consider `CCCC(OC(C)=O)OC(=O)NC[C@H](CC(=O)[O-])c1ccc(Cl)cc1.[Na+]` (stereo partly drawn) [(74), Sodium 4-[(1-Acetoxybutoxy)carbonylamino]-(3R)-(4-chlorophenyl)-butanoate], for which the “Ratio A-BB-A” value in the series with Caco-2 cells is 11.2.

In the case of `CCCC(=O)OC(CC)OC(=O)NC[C@H](CC(=O)[O-])c1ccc(Cl)cc1.[Na+]` (stereo partly drawn) [(78), Sodium 4-[(1-Butanoyloxypropoxy)carbonylamino]-(3R)-(4-chlorophenyl)-butanoate], the “Ratio A-BB-A” value with Caco-2 cells was 7.9.

Regarding `CCC[C@H](OC(=O)NC[C@H](CC(=O)[O-])c1ccc(Cl)cc1)OC(=O)C(C)C.[Na+]` [(91), Sodium 4-{[(1S)-Isobutanoyloxybutoxy]carbonylamino}-(3R)-(4-chlorophenyl)-butanoate], the “% of Baclofen Released” value was 78% in series [1] (s9, 1 h); 10% in series [2] (1 h); 2% in series [3] (1 h); 78% with Pancreatin (setting [7]); 107% in series [4]; 0% in series [5] (1 h, pH 2). Further, the “% of Baclofen Released” value in series [5] (1 h, pH 7.4) worked out at 0%; in series [5] (1 h, pH 8), 1%; in series [6] (s9, 1 h), 70%. The “% of Prodrug Remaining” value in series [1] (s9, 1 h) amounted to 1%; in series [2] (1 h), 80%; in series [3] (1 h), 83%; in the series on Pancreatin (setting [7]), 11%; in series [4], 6%; in series [5] (1 h, pH 2), 100%. For the same compound, the “% of Prodrug Remaining” value turned out to be 97% in series [5] (1 h, pH 7.4); 94% in series [5] (1 h, pH 8); 22% in series [6] (s9, 1 h).

In the case of `CC(C)C(=O)O[C@H](OC(=O)NC[C@H](CC(=O)[O-])c1ccc(Cl)cc1)C(C)C.[Na+]` [(100), Sodium 4-{[(1R)-Isobutanoyloxyisobutoxy]carbonylamino}-(3R)-(4-chlorophenyl) -butanoate], the “% of Baclofen Released” value in series [1] (s9, 1 h) stood at 83%; in series [2] (1 h), 64%; in series [3] (1 h), 3%; in the series on Pancreatin (setting [7]), 27%; in series [4] it was 90%; in series [5] (1 h, pH 2), 0%. For the same compound, the “% of Baclofen Released” value is 0% in series [5] (1 h, pH 7.4); 0% in series [5] (1 h, pH 8); 85% in series [6] (s9, 1 h). Moreover, the “% of Prodrug Remaining” value is on record as 1% in series [1] (s9, 1 h); 9% in series [2] (1 h); 89% in series [3] (1 h); 68% in the series on Pancreatin (setting [7]); 7% in series [4]; 101% in series [5] (1 h, pH 2). The “% of Prodrug Remaining” value in series [5] (1 h, pH 7.4) turned out to be 98%; in series [5] (1 h, pH 8), 95%; in series [6] (s9, 1 h), 3%.

On to “Sodium 4-[(1-Benzoyloxgyethoxy)carbonylaminol-(3R)-(4-chlorophenyl)-butanoate [(40)]”, for which the “% of Baclofen Released” value in series [1] (s9, 60 min) is on record as 1/105%; in series [2] (60 min) it was 72/17%; in series [3] (60 min) it was 101/2%; in the series on Pancreatin (pig, pancreatin, 1 h, pH 7.5), 43/58%; in series [4], 15/85%; in series [5] (pH 2, 60 min), 103/0%. Besides, the “% of Baclofen Released” value in series [5] (pH 7.4, 60 min) is recorded as 100/0%; in series [5] (pH 8, 60 min) it was 107/2%; in series [6] (s9, 60 min), 8/96%. The “% of Prodrug Remaining” value is listed as 1/105% in series [1] (s9, 60 min); 72/17% in series [2] (60 min); 101/2% in series [3] (60 min); 43/58% with Pancreatin (pig, pancreatin, 1 h, pH 7.5); 15/85% in series [4]; 103/0% in series [5] (pH 2, 60 min). The “% of Prodrug Remaining” value in series [5] (pH 7.4, 60 min) is recorded as 100/0%; in series [5] (pH 8, 60 min), 107/2%; in series [6] (s9, 60 min), 8/96%.
